Values of other authors as cited in US20130281718A1, “HIGH-FLUIDITY NON-CAKING DIANHYDROHEXITOL PELLETS” (ROQUETTE FRERES, priority 2010, published 2013).

Settings: addition of 0.005% by weight of butyl cellulose acetate; pressure of 0.23 bar after forming

Time without caking: 30 days
Structure (SMILES): CC(C)(CO)CO [neopentyl glycol]
